Literature values as cited in patent publication US12208399B2, “Electrochemical separation and recovery of metals” (YALE UNIVERSITY, priority 2017, dated 2025).
Values after ≈ are worked out from the molar mass of the structure shown.

Row | Compound | Solubility in water [mg/mL]
1 | Cc1cc2nc3c(=O)[nH]c(=O)nc-3n(C[C@@H](O)[C@@H](O)[C@@H](O)COP(=O)(O)O)c2cc1C [RMP, riboflavin 5′-monophosphate] | 100 (≈ 219 mM)
2 | O=C1C(Cl)=CC(=Nc2ccc(O)cc2)C=C1Cl [DCIP, 2,6-dichloroindophenol] | 10 (≈ 37.3 mM)
